# From ChEMBL document CHEMBL6083201, “Identification of triazolyl KAT6 inhibitors via a templated fragment approach” (Bioorg Med Chem Lett, 2024)
# Target: Histone acetyltransferase KAT6A (Homo sapiens, UniProt Q92794)
# Experiment: Inhibition of KAT6A (unknown origin)
# Histone acetyltransferase KAT6A, sequence (Q92794 whole entry): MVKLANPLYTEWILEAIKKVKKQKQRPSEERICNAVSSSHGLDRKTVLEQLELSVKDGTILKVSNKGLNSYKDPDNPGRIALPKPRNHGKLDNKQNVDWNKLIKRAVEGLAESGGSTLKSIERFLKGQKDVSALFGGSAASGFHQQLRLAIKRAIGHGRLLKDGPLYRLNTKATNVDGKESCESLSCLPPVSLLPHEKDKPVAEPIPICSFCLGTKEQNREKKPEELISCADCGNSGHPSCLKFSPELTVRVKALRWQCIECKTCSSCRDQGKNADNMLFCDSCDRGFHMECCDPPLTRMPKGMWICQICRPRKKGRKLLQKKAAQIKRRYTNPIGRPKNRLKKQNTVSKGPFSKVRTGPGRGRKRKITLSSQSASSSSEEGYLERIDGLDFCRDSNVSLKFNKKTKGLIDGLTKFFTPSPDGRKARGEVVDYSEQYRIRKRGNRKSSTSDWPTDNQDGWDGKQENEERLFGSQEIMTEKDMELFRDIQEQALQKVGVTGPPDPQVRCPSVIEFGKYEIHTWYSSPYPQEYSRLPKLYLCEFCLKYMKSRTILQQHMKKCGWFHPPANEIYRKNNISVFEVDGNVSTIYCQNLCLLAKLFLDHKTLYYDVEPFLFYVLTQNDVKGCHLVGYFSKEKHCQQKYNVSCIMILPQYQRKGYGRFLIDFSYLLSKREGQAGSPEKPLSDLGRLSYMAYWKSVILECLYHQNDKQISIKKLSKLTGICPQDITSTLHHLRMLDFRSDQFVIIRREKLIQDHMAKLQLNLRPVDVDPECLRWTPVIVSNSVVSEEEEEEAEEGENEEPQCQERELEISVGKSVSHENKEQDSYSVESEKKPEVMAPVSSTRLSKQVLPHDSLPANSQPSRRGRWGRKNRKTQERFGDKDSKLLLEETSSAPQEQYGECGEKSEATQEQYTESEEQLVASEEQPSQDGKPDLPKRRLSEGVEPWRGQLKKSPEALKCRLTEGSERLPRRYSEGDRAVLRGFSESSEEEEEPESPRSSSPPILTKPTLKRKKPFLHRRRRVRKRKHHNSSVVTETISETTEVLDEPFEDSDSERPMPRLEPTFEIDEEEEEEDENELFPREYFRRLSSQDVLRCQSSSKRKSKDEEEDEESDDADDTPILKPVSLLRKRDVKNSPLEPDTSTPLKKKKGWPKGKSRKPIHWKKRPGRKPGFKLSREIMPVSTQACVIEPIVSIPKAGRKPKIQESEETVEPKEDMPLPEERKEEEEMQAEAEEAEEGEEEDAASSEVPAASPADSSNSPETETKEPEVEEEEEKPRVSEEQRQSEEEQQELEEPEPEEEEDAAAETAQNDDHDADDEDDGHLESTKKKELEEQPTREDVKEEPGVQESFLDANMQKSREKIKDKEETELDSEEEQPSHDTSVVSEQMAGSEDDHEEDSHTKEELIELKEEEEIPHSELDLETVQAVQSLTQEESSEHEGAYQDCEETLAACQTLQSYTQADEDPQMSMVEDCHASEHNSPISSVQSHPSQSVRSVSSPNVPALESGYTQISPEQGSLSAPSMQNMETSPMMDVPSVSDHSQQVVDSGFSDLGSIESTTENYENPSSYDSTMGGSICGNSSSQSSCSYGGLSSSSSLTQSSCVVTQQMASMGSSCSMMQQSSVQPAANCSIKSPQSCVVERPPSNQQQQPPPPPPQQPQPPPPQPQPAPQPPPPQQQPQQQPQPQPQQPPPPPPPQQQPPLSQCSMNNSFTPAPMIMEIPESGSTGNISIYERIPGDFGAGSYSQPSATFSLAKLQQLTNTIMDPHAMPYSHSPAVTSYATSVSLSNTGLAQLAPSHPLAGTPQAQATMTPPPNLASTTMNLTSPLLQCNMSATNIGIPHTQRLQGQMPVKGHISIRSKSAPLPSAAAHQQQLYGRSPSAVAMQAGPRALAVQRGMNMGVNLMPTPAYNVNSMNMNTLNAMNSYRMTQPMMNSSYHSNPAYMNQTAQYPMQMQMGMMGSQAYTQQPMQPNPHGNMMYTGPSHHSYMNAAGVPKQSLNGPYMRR
compound,measurement,value
COc1ccc(C2=CCN(C)CC2)cc1-n1cc(NS(=O)(=O)c2ccccc2)nn1,IC50,> 100 µM
